Earlier results as cited in patent publication US20100081719A1 (priority 2006, published 2010).

Assays:
[1] = test system: patients with FMS; conditions: open-label; 11 completing patients; cited from earlier work
[2] = test system: subjects suffering from fibromyalgia syndrome; conditions: cited from earlier work; for Subjects with significant clinical improvement: after one month; for Difference from placebo: at three months

Row | SMILES | Completing patients with a positive response (50% or greater improvement in two different measurements of overall pain) [1] | Completing patients with insomnia requiring adjunctive medical therapy [1] | Subjects with significant clinical improvement [2] | Difference from placebo [2]
1 | COc1ccc(C(CN(C)C)C2(O)CCCCC2)cc1 (stereo not drawn) [venlafaxine] | Six of 11 | 3 of 11 |  | 
2 | CN(C)CCC=C1c2ccccc2CCc2ccccc21 [amitriptyline] |  |  | 21% | no difference
3 | CN(C)CCC=C1c2ccccc2C=Cc2ccccc21 [cyclobenzaprine] |  |  | 12% | no difference
